In test [1] the target is TRAF2 and NCK-interacting protein kinase (Homo sapiens, UniProt Q9UKE5). Put plainly: Inhibition of human recombinant TNIK (1 to 367 residues) using RLGRDKYKTLRQIRQ as substrate incubated for 40 mins in presence of Mg/ATP mix by [gamma p33]-ATP based radiometric scintillation counting method.
The test system of test [2] is HCT-116. Put plainly: Antiproliferative activity against human HCT-116 cells assessed as inhibition of cell proliferation incubated for 72 hrs by MTT assay. It counts as functional, cell-based. The following applies: HCT-116, 72 h. A general note: Tetrazolium dyes change colour on reduction, which living cells bring about.
Test [3] concerns HCT-116. Put plainly: Downregulation of c-Myc protein expression in human HCT-116 cells at 10 to 40 uM incubated for 48 hrs by western blot analysis. It counts as functional, cell-based. The following applies: dose 10-40 µM. Background: A western blot detects proteins with antibodies after separation by electrophoresis.
Test [4] deals with HCT-116. In words: Inhibition of colony formation in human HCT-116 cells assessed as inhibition of cell proliferation at 1.25 to 5 uM incubated for 14 days by crystal violet staining based microscopic analysis. The following applies: dose 1.25-5 µM, time 14.0 day, DDE = dose-dependent effect. It counts as functional.
Test [5] relates to HCT-116. In words: Inhibition of cell migration in human HCT-116 cells at 1 uM incubated for 24 to 48 hrs by wound-closure assay. Format: functional, cell-based. The note with it: time 24-48 hrs.
For test [6], the target named is Vascular endothelial growth factor receptor 3 (Homo sapiens) (UniProt P35916). Put plainly: Inhibition of human recombinant FLT4 (800 to end residues) using GGEEEEYFELVKKKK as substrate incubated for 40 mins in presence of [gamma-33P]-ATP by radiometric based scintillation counter assay.
The test system of test [7] is HCT-116. Put plainly: Downregulation of nuclear beta-catenin protein expression in human HCT-116 cells at 10 to 40 uM incubated for 48 hrs by western blot analysis. It counts as functional, cell-based. The note with it: dose 10-40 µM, DDE = dose-dependent effect.
Test [8] has as its system HCT-116. In words: Downregulation of Axin2 protein expression in human HCT-116 cells at 10 to 40 uM incubated for 48 hrs by western blot analysis. Format: functional, cell-based. The following applies: dose 10-40 µM.
Test [9] concerns HCT-116. Put plainly: Downregulation of nuclear TCF-4 protein expression in human HCT-116 cells at 10 to 40 uM incubated for 48 hrs by western blot analysis. It counts as functional, cell-based. The note with it: dose 10-40 µM, DDE = dose-dependent effect.
For test [10], the target named is Vascular endothelial growth factor receptor 2 (Homo sapiens) (UniProt P35968). In words: Inhibition of recombinant human KDR (790 to end residues) using myelin basic protein as substrate incubated for 40 mins in presence of [gamma-33P]-ATP by radiometric based scintillation counter assay.

The text below walks through data of ChEMBL document CHEMBL5143674, “Discovery of benzo[d]oxazol-2(3H)-one derivatives as a new class of TNIK inhibitors for the treatment of colorectal cancer” (Bioorg Med Chem Lett, 2022).

Active and inactive are the calls of the source. The rule behind the calls is not given here. Some results are limits rather than exact numbers.

TRAF2 and NCK-interacting protein kinase, sequence (Q9UKE5 whole entry, the tested form may be a part): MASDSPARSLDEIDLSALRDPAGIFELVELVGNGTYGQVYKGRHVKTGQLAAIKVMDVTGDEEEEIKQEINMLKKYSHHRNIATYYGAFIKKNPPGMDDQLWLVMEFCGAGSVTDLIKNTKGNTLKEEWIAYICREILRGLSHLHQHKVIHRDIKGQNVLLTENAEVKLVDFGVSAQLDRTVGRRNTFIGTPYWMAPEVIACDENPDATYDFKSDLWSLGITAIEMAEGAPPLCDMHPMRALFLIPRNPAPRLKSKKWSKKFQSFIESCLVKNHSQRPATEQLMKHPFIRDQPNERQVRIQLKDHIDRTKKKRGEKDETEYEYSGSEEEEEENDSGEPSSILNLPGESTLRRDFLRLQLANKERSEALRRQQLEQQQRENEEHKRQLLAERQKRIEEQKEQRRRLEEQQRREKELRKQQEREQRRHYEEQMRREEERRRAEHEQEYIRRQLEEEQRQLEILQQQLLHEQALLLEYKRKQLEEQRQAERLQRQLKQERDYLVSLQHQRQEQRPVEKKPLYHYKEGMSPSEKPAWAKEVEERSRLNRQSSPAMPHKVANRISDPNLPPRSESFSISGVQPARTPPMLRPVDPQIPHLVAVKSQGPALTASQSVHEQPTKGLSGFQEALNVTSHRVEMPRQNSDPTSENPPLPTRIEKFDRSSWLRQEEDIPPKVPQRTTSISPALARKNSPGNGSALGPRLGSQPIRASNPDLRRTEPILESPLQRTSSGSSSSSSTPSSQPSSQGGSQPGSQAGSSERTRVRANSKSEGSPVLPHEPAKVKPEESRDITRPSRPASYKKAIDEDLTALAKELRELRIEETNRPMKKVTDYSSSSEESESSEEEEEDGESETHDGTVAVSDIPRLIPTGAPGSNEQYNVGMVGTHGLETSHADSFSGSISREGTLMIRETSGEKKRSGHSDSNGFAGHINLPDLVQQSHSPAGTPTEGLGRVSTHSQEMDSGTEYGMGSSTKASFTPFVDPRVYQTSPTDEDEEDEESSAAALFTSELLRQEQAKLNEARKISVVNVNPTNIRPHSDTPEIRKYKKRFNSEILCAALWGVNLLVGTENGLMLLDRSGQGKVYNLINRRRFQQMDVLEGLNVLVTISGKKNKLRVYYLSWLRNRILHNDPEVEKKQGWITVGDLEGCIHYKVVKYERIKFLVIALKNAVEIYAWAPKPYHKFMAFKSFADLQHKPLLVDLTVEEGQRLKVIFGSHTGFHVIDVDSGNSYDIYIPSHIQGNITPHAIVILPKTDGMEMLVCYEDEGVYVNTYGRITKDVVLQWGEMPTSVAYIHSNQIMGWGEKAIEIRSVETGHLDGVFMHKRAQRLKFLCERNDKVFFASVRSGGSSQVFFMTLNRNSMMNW
Vascular endothelial growth factor receptor 2 (Homo sapiens), sequence (P35968 whole entry): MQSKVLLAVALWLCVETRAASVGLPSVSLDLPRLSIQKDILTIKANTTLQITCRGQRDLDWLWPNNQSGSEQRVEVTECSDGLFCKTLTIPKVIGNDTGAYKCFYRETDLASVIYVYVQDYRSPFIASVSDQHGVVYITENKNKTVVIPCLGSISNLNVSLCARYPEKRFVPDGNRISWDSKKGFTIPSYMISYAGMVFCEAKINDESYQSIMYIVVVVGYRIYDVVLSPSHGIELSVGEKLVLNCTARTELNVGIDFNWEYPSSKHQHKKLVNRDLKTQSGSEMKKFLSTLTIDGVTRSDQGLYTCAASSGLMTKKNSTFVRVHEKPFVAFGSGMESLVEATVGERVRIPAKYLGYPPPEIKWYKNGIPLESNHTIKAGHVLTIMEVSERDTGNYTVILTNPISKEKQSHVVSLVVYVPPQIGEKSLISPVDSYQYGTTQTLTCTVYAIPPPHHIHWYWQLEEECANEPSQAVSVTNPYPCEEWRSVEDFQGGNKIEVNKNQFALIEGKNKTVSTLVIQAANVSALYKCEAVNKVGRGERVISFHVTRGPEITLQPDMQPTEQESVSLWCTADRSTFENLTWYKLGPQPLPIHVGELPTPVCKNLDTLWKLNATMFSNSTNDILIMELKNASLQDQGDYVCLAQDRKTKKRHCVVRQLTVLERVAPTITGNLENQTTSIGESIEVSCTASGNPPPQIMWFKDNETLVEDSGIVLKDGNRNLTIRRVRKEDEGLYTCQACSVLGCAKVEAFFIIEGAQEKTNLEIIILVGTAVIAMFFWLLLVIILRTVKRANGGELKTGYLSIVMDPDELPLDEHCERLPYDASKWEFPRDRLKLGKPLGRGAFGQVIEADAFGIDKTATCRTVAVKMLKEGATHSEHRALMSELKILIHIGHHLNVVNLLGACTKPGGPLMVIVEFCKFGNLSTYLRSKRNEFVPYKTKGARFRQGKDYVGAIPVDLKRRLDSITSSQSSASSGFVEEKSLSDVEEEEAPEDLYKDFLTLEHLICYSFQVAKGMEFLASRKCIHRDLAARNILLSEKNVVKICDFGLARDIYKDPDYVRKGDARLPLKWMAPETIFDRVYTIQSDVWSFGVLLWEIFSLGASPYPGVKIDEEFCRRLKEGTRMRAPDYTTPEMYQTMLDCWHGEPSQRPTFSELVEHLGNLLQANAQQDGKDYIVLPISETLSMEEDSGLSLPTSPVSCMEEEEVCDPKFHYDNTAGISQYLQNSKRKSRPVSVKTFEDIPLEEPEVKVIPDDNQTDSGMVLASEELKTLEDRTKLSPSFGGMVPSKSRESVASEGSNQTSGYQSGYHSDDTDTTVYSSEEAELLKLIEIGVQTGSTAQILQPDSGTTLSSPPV
Vascular endothelial growth factor receptor 3 (Homo sapiens), sequence (P35916 whole entry): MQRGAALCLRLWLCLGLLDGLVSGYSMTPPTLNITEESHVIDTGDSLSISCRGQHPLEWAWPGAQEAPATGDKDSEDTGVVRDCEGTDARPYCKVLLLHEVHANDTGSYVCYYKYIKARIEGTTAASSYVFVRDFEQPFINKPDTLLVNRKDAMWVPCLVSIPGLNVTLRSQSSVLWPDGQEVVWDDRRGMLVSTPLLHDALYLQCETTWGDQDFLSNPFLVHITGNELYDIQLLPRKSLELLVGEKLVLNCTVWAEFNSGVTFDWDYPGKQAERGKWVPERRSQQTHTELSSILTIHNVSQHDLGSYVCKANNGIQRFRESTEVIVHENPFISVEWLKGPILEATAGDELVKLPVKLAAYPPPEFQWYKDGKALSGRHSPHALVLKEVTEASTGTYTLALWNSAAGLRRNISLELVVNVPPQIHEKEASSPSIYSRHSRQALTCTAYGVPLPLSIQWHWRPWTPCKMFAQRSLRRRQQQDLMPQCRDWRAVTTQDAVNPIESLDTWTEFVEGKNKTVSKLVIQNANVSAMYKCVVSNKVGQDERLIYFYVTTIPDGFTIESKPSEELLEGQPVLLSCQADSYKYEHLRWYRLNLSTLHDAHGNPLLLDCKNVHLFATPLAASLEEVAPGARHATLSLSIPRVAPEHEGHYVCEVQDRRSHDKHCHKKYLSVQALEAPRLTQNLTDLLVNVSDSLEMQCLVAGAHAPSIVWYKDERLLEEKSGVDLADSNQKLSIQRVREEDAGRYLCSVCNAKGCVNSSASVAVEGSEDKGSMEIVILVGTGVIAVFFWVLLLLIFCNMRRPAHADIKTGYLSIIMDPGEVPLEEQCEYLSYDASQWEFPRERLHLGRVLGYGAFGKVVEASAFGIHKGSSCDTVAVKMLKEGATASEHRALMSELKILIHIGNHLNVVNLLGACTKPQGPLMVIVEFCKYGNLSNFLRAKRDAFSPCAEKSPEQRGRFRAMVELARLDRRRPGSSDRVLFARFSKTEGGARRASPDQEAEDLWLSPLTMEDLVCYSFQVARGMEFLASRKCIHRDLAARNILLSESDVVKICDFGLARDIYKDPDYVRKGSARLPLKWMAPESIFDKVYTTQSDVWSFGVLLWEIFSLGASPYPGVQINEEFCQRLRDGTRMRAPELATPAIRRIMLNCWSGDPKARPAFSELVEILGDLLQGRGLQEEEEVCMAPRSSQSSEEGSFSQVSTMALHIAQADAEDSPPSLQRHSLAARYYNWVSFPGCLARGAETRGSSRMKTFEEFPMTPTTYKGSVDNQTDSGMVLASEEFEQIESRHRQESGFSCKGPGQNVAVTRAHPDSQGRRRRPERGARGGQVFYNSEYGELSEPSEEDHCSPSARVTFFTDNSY

For orientation: IC50 means the midpoint of a concentration-inhibition curve. On to `COc1cccc(Cn2c(=O)oc3cc(-c4ccc5[nH]cc(C(=O)NC6CC6)c5c4)ccc32)c1`, for which the IC50 in test [1] was above 10 µM.

With `Nc1ccc(-c2ccc3c(c2)oc(=O)n3Cc2ccc(F)cc2)cn1`, the results for the IC50 in test [2] and in test [1] were 16.5 µM and 0.234 µM, respectively.

On to `COc1cccc(Cn2c(=O)oc3cc(-c4cnc(C#N)c(C)c4)ccc32)c1`, for which the IC50 in [1] was above 10 µM.

In the case of `COc1cccc(Cn2c(=O)oc3cc(-c4ccc(N)nc4)ccc32)c1`, the IC50 in [2] is 7.44 µM; in test [1], 0.412 µM.

`O=c1oc2cc(-c3cnc4ccnn4c3)ccc2n1Cc1ccc(F)cc1`: the 50% inhibitory concentration (IC50) in test [1] was above 10 µM.

With `O=c1oc2cc(-c3c[nH]c4ncccc34)ccc2n1Cc1ccc(F)cc1`, the half-inhibitory concentration (IC50) in test [2] is 11.8 µM; in test [1], 0.228 µM.

`O=c1oc2cc(-c3ccn4ncnc4c3)ccc2n1Cc1ccc(F)cc1`: in test [1], the IC50 was found to be 4.44 µM.

Take `O=c1cnc2cc(-c3ccc4c(c3)oc(=O)n4Cc3ccc(F)cc3)ccc2[nH]1`: the IC50 in [1] is above 10 µM.

In the case of `COc1cc(Cn2c(=O)oc3cc(-c4cnc5[nH]ccc5c4)ccc32)ccc1F`, the IC50 amounted to 8.05 µM in test [2] and 0.719 µM in [1].

For the molecule `COc1cccc(Cn2c(=O)oc3cc(-c4cnc5cc[nH]c5c4)ccc32)c1`, the IC50 in [1] was above 10 µM.

Consider `COc1cccc(Cn2c(=O)oc3cc(-c4cccnc4)ccc32)c1`, for which the half-inhibitory concentration (IC50) in test [1] was 3.99 µM.

On to `Cc1cccc(Cn2c(=O)oc3cc(-c4cnc5[nH]ccc5c4)ccc32)c1`, for which the figures for the IC50 in test [2] and in [1] were 5.12 µM and 0.356 µM, respectively.

The term inhibition denotes the drop in the measured response relative to a control, in per cent. On to `COc1cccc(Cn2c(=O)oc3cc(-c4cnc5[nH]ccc5c4)ccc32)c1`, for which the result in test [3] and in test [8] was Active. For the same molecule, the inhibition result in test [4] was “Dde”; in [6] it was above 80%; in test [10] it was above 80%. Moreover, the inhibition entry in test [5] was “Active”. Further, the Activity result in test [7] and in test [9] was “Dde” throughout. In addition, the IC50 in test [2] worked out at 5 µM; in test [1] it was 0.05 µM.

`O=c1oc2cc(-c3cnc4cnccn34)ccc2n1Cc1ccc(F)cc1`: the IC50 in test [1] was above 10 µM.

With `COc1cccc(Cn2c(=O)oc3cc(-c4cnc5[nH]ccc5n4)ccc32)c1`, the IC50 in [1] was 3.98 µM.

With `O=c1oc2cc(-c3ccc4nncn4c3)ccc2n1Cc1ccc(F)cc1`, in test [1], the IC50 was above 10 µM.

For `COc1cccc(Cn2c(=O)oc3cc(-c4ccc5[nH]c(C(=O)NC6CC6)cc5c4)ccc32)c1`, in test [1], the IC50 was above 10 µM.

Turning to `O=c1oc2cc(-c3cnc4[nH]ccc4c3)ccc2n1Cc1cccc(OC(F)F)c1`, the IC50 in test [1] is 1.74 µM.

In the case of `O=c1oc2cc(-c3cnc4[nH]ccc4c3)ccc2n1Cc1ccccc1F`, the IC50 in test [1] came out at 1.05 µM.

Regarding `Nc1ncnn2c(-c3ccc4c(c3)oc(=O)n4Cc3ccc(F)cc3)ccc12`, the results for the IC50 in test [2] and in [1] were above 100 µM and 0.663 µM, respectively.

On to `O=c1oc2cc(-c3cnc4ncccn34)ccc2n1Cc1ccc(F)cc1`, for which the IC50 in test [1] is above 10 µM.

For the molecule `O=c1oc2cc(-c3ccnc4[nH]ncc34)ccc2n1Cc1ccc(F)cc1`, the IC50 is above 100 µM in [2] and 0.91 µM in test [1].

As to `O=c1oc2cc(-c3cnc4[nH]ccc4c3)ccc2n1Cc1cccc(OC(F)(F)F)c1`, the half-inhibitory concentration (IC50) in [2] worked out at 7.06 µM; in test [1], 0.289 µM.

Turning to `O=c1oc2cc(-c3cnc4[nH]ccc4c3)ccc2n1Cc1ccc(F)cc1`, the figures for the half-maximal inhibitory concentration (IC50) in test [2] and in [1] were 5.99 µM and 0.11 µM, respectively.

In the case of `O=c1oc2cc(-c3ccc4scnc4c3)ccc2n1Cc1ccc(F)cc1`, the IC50 in [1] was above 10 µM.

Consider `O=c1oc2cc(-c3cnc4[nH]ccc4c3)ccc2n1Cc1cccc(F)c1`, for which the figures for the IC50 in test [2] and in test [1] were 5.92 µM and 0.09 µM, respectively.

As for `O=c1oc2cc(-c3cnc4cccnn34)ccc2n1Cc1ccc(F)cc1`, the 50% inhibitory concentration (IC50) in [1] was above 10 µM.

For the molecule `O=c1oc2cc(-c3cnc4[nH]ccc4c3)ccc2n1Cc1cccc(C(F)(F)F)c1`, in [1], the IC50 was 2.84 µM.

On to `O=c1oc2cc(-c3cnc4[nH]ccc4n3)ccc2n1Cc1ccc(F)cc1`, for which the 50% inhibitory concentration (IC50) in test [1] came out at 4.08 µM.

In the case of `O=c1oc2cc(-c3ccc4[nH]ccc4c3)ccc2n1Cc1ccc(F)cc1`, in test [1], the IC50 was 1.26 µM.

On to `N#Cc1cc(-c2ccc3c(c2)oc(=O)n3Cc2ccc(F)cc2)cnc1N`, for which the IC50 in [2] came to 8.25 µM; in test [1], 0.156 µM.

For `O=c1oc2cc(-c3ccc4ncnn4c3)ccc2n1Cc1ccc(F)cc1`, in [1], the IC50 was 2.44 µM.

Regarding `COc1cccc(Cn2c(=O)oc3cc(-c4ccnc5[nH]ccc45)ccc32)c1`, the IC50 in test [1] was 9 µM.

As to `O[C@H]1CC[C@@H](Oc2cccc3cnc(Nc4ccc5nc[nH]c5c4)nc23)CC1`, in test [2], the IC50 was 0.403 µM.

As for `COc1cccc(Cn2c(=O)oc3cc(-c4ccc5[nH]ccc5c4)ccc32)c1`, the IC50 in test [1] came to 1.16 µM.

In the case of `COc1cccc(Cn2c(=O)oc3cc(-c4ccc5c(c4)CCN5)ccc32)c1`, the IC50 in test [2] is above 100 µM; in [1] it was 0.265 µM.

In the case of `COc1cc(-c2ccc3c(c2)oc(=O)n3Cc2ccc(F)cc2)cnc1N`, the IC50 in test [2] amounted to 36.4 µM; in test [1], 0.61 µM.

For `N#Cc1cccc(Cn2c(=O)oc3cc(-c4cnc5[nH]ccc5c4)ccc32)c1`, the IC50 in test [1] is above 10 µM.

In the case of `COc1cccc(Cn2c(=O)oc3cc(-c4cncnc4)ccc32)c1`, the IC50 in test [1] amounted to 5.61 µM.
